The source of these data is patent publication US11351151B2, “Compound having anticancer activity and preparation method and application” (3D Medicines (Beijing) Co., Ltd., priority 2016, dated 2022).

Experiment in all cases: Cell proliferation assay (Alamar Blue)
Format in all cases: cell-based

One test deals with 22RV1. The conditions noted are these: Homo sapiens, 144 h; 22RV1 tumor cell line; 6 days. In a few lines:
(§1)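 Cells seeded at 500–1×10^4/well, allowed 4 h at 37 °C, 5% CO2, then given 9-point compound series (3.16-fold from 30 or 100 μM top). After 6 days, AlamarBlue added 1–4 h and fluorescence read (ex 560/em 590 nm); IC50 from four-parameter nonlinear regression of inhibition versus 0% and 100% controls.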

The next test concerns HEPG2. Particulars: Homo sapiens, 144 h; HEPG2 liver cancer cell line; 6 days. An outline of the steps: as §1
For another test, the system named is SNU423. The conditions noted are these: Homo sapiens, SNU-423, 144 h; SNU423 liver cancer cell line; 6 days. In a few lines:
as §1

Another test relates to HT1080. The conditions noted are these: Homo sapiens, HT-1080, 144 h; HT1080 tumor cell line; 6 days. An outline of the steps:
as §1

For the next test, the system named is KM12. Particulars: Homo sapiens, 144 h; KM12 tumor cell line; 6 days. In a few lines: as §1
Another test has as its system HCCLM3. Particulars: Homo sapiens, 144 h; HCCLM3 tumor cell line; 6 days. In a few lines: as §1
A further test has as its system Hep3B2.1-7. The conditions noted are these: 144 h; Hep3B2.1-7 liver cancer cell line; 6 days. In a few lines: as §1
The test system of a further test is JHH2. Particulars: JHH-2, 144 h; JHH2 liver cancer cell line; 6 days. In a few lines:
as §1

For another test, the system named is TE-15. Particulars: Homo sapiens, 144 h; TE-15 tumor cell line; 6 days. An outline of the steps:
as §1

Another test concerns SK-HEP-1. Particulars: Homo sapiens, SK-HEP1, 144 h; SK-HEP-1 liver cancer cell line; 6 days. In a few lines: as §1
The subject of the next test is SNU354. The conditions noted are these: Homo sapiens, SNU-354, 144 h; SNU354 liver cancer cell line; 6 days. In a few lines:
as §1

Another test has as its system AN3CA. The conditions noted are these: Homo sapiens, AN3-CA, 144 h; AN3CA (endometrial cells); 6 days. In a few lines: as §1
In a further test the test system is KASUMI-1. The conditions noted are these: Homo sapiens, 144 h; KASUMI-1 (leukemia cells); 6 days. In a few lines:
as §1

The test system of the next test is SNU739. The conditions noted are these: SNU-739, 144 h; SNU739 liver cancer cell line; 6 days. In a few lines: as §1
A further test deals with SNU475. Particulars: Homo sapiens, SNU-475, 144 h; SNU475 liver cancer cell line; 6 days. In a few lines:
as §1

The subject of another test is JHH1. The conditions noted are these: 144 h; JHH1 liver cancer cell line; 6 days. An outline of the steps:
as §1

The next test concerns T.T. Particulars: Homo sapiens, TT, 144 h; T.T tumor cell line; 6 days. In a few lines:
as §1

For another test, the system named is SNU761. Particulars: 144 h; SNU761 liver cancer cell line; 6 days. An outline of the steps: as §1
The next test has as its system Alexander cells. Particulars: 144 h, liver cancer cell line, 6 days. In a few lines: as §1
The subject of another test is JHH7. Particulars: 144 h; JHH7 liver cancer cell line; 6 days. In a few lines: as §1
The next test deals with LNCAP-clone-FGC. Particulars: Homo sapiens, 144 h; LNCAP-clone-FGC tumor cell line; 6 days. An outline of the steps: as §1
The test system of a further test is NCl-H526. The conditions noted are these: 144 h; NCl-H526 tumor cell line; 6 days. In a few lines: as §1
The subject of a further test is HUH1. Particulars: Homo sapiens, HuH-1, 144 h; HUH1 liver cancer cell line; 6 days. An outline of the steps: as §1

On to `Cc1ccc(F)c(NC(=O)Nc2ccc(-c3cccc4c3c(N)nn4C(=O)C[C@H](N)C(=O)N[C@@H](CCC(=O)N[C@@H](CCC(=O)N[C@@H](CCC(=O)N[C@@H](CCC(=O)N[C@@H](CCC(=O)N[C@@H](CCC(=O)N[C@@H](CCC(=O)N[C@@H](CCC(=O)N[C@@H](CCC(=O)O)C(=O)O)C(=O)O)C(=O)O)C(=O)O)C(=O)O)C(=O)O)C(=O)O)C(=O)O)C(=O)O)cc2)c1` [Compound 3], for which the IC50 (usually the midpoint of a concentration-inhibition curve) with 22RV1 was determined as 10.3 µM; in the test with HEPG2, 1.73 µM; with SNU423, 26.1 µM; in the test with HT1080 it was 25.8 µM; in the test on KM12, 4.63 µM; in the test on HCCLM3, 25.7 µM. For the same compound, the IC50 came to 5.33 µM in the test with Hep3B2.1-7; 40.7 µM in the test on JHH2; 12.7 µM in the test with TE-15; 15.8 µM with SK-HEP-1; 16.8 µM in the test with SNU354; 0.64 µM with AN3CA. For the same compound, the IC50 amounted to 0.19 µM with KASUMI-1; 8.05 µM in the test on SNU739; 9.62 µM in the test on SNU475; 14.9 µM in the test on JHH1; 19.8 µM with T.T; 29.1 µM with SNU761. Further, the IC50 in the test on Alexander cells was 12.7 µM; in the test on JHH7 it was 5.69 µM; in the test on LNCAP-clone-FGC, 15.4 µM; in the test with NCl-H526, 11.3 µM; in the test with HUH1 it was 7.93 µM.
